Laboratory results taken from PubChem BioAssay AID248 (DTP/NCI, 2004).
Several values for one entry are separate records, joined by “and”; a condition that tells them apart may be missing. Equal values may be shown once. Toxic doses and inconclusive results are not listed. No stated cut-off is given here; in the data, active means T/C of 150% or more; inactive means T/C below 125%.

Test system: L1210 leukemia ip in BDF1 mice, survival T/C
Experiment: NCI In Vivo Anticancer Drug Screen. Data for tumor model L1210 Leukemia (intraperitoneal) in B6D2F1 (BDF1) mice
Details: endpoint: mean survival time, higher = longer survival
Method in brief: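 Each compound was tested against a transplantable tumor grown in mice. The endpoint was survival, with treated animals benchmarked against vehicle controls as a simple ratio.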

[1] = dose: 50.0 mg/kg/injection, schedule: Q01DX009 (ip), vehicle: saline
[2] = dose: 100.0 mg/kg/injection, schedule: Q01DX001 (ip), vehicle: saline
[3] = dose: 100.0 mg/kg/injection, schedule: Q01DX009 (ip), vehicle: saline
[4] = dose: 100.0 mg/kg/injection, schedule: Q04DX003 (ip), vehicle: saline
[5] = dose: 200.0 mg/kg/injection, schedule: Q01DX001 (ip), vehicle: saline
[6] = dose: 200.0 mg/kg/injection, schedule: Q01DX009 (ip), vehicle: saline
[7] = dose: 200.0 mg/kg/injection, schedule: Q04DX003 (ip), vehicle: saline
[8] = dose: 100.0 mg/kg/injection, schedule: Q01DX009 (ip), vehicle: Klucel (hydroxypropylcellulose) (HPC)
[9] = dose: 100.0 mg/kg/injection, schedule: Q04DX003 (ip), vehicle: Klucel (hydroxypropylcellulose) (HPC)
[10] = dose: 200.0 mg/kg/injection, schedule: Q01DX009 (ip), vehicle: Klucel (hydroxypropylcellulose) (HPC)
[11] = dose: 200.0 mg/kg/injection, schedule: Q04DX003 (ip), vehicle: Klucel (hydroxypropylcellulose) (HPC)
[12] = dose: 400.0 mg/kg/injection, schedule: Q01DX009 (ip), vehicle: Klucel (hydroxypropylcellulose) (HPC)
[13] = dose: 400.0 mg/kg/injection, schedule: Q04DX003 (ip), vehicle: Klucel (hydroxypropylcellulose) (HPC)
[14] = dose: 100.0 mg/kg/injection, schedule: Q01DX009 (ip), vehicle: saline with Tween-80
[15] = dose: 200.0 mg/kg/injection, schedule: Q01DX009 (ip), vehicle: saline with Tween-80
[16] = dose: 400.0 mg/kg/injection, schedule: Q01DX009 (ip), vehicle: saline with Tween-80
[17] = dose: 100.0 mg/kg/injection, schedule: Q04DX003 (ip), vehicle: saline with Tween-80
[18] = dose: 200.0 mg/kg/injection, schedule: Q04DX003 (ip), vehicle: saline with Tween-80
[19] = dose: 400.0 mg/kg/injection, schedule: Q04DX003 (ip), vehicle: saline with Tween-80
[20] = dose: 400.0 mg/kg/injection, schedule: Q01DX001 (ip), vehicle: saline

Measured: T/C

CC(=O)[C@H]1CC[C@H]2[C@@H]3C[C@H](C)C4=CC(=O)CC[C@]4(C)[C@H]3[C@@H](O)C[C@]12C
inactive: [1] 100 % of control | dose: 50.0 mg/kg/injection, schedule: Q01DX Z (sc), vehicle: steriod suspending solution 106 % of control | dose: 50.0 mg/kg/injection, schedule: Q04DX003 (ip), vehicle: saline 95 % of control | [2] 93 % of control | [3] 94 % of control | dose: 100.0 mg/kg/injection, schedule: Q01DX Z (sc), vehicle: steriod suspending solution 103 % of control | [4] 103 % of control | [5] 104 % of control | [6] 102 % of control | dose: 200.0 mg/kg/injection, schedule: Q01DX Z (sc), vehicle: steriod suspending solution 103 % of control | [7] 102 % of control | dose: 400.0 mg/kg/injection, schedule: Q01DX Z (sc), vehicle: steriod suspending solution 98 % of control

CCN(CC)CCCC(C)Nc1c2ccc(Cl)cc2nc2ccc(F)cc12 (stereo not given)
inactive: dose: 44.0 mg/kg/injection, schedule: Q01DX Z (ip), vehicle: saline 111 % of control | dose: 66.0 mg/kg/injection, schedule: Q01DX Z (ip), vehicle: saline 117 % of control | dose: 100.0 mg/kg/injection, schedule: Q01DX Z (ip), vehicle: saline 117 % of control

CCc1ccc(NC(=O)Nc2ccccc2C)cc1
inactive: [8] 92 % of control | [9] 93 % of control | [10] 94 % of control | [11] 93 % of control | [12] 100 % of control | [13] 94 % of control

CC(=O)Nc1ncnn1C(C)=O
inactive: [1] 97 % of control | [3] 96 % of control | [4] 98 % of control | [6] 97 % of control | [7] 95 % of control

COc1ccc(-c2nc3cc(Cl)ccc3c(=O)o2)cc1
inactive: [14] 94 % of control | [15] 94 % of control | [16] 90 % of control

CCCCOC(=O)c1cocc1C(=O)OCCCC
inactive: [14] 99 % of control | [17] 98 % of control | [15] 92 % of control | [18] 104 % of control | [16] 90 % of control | [19] 93 % of control

NC(=S)N/N=C(\c1ccc(Br)cc1)C1CC1
inactive: dose: 2.0 mg/kg/injection, schedule: Q01DX Z (ip), vehicle: carboxymethylcellulose (CMC) 105 % of control | dose: 4.0 mg/kg/injection, schedule: Q01DX Z (ip), vehicle: carboxymethylcellulose (CMC) 102 % of control | dose: 4.0 mg/kg/injection, schedule: Q01DX Z (oral), vehicle: carboxymethylcellulose (CMC) 115 % of control | dose: 8.0 mg/kg/injection, schedule: Q01DX Z (ip), vehicle: carboxymethylcellulose (CMC) 113 % of control | dose: 8.0 mg/kg/injection, schedule: Q01DX Z (oral), vehicle: carboxymethylcellulose (CMC) 115 % of control | dose: 16.0 mg/kg/injection, schedule: Q01DX Z (oral), vehicle: carboxymethylcellulose (CMC) 107 % of control

Cc1ccc(S(=O)(=O)N2CC(O)C=Cc3ccccc32)cc1 (stereo not given)
inactive: dose: 100.0 mg/kg/injection, schedule: Q01DX001 (ip), vehicle: carboxymethylcellulose (CMC) 107 % of control | dose: 200.0 mg/kg/injection, schedule: Q01DX001 (ip), vehicle: carboxymethylcellulose (CMC) 105 % of control | dose: 400.0 mg/kg/injection, schedule: Q01DX001 (ip), vehicle: carboxymethylcellulose (CMC) 110 % of control

CCCCCCCCN/N=C(/C)CCCCCO
inactive: [2] 98 % of control | [5] 103 % of control | [20] 103 % of control

Clc1ccc(Oc2ccc(N3C=Nc4ccc(Oc5ccc(Cl)cc5)cc4C3)cc2)cc1
inactive: [14] 98 % of control | [17] 97 % of control | [15] 96 % of control | [18] 94 % of control | [16] 93 % of control | [19] 89 % of control

On1nc(-c2ccccc2)c(-c2c(-c3ccccc3)nn(O)c2-c2ccccc2)c1-c1ccccc1
inactive: dose: 50.0 mg/kg/injection, schedule: Q01DX009 (ip), vehicle: Klucel (hydroxypropylcellulose) (HPC) 90 % of control | [8] 90 % of control | [10] 97 % of control

CCn1c(=O)n(C)c(=O)n1C(=O)c1ccccc1
inactive: dose: 100.0 mg/kg/injection, schedule: Q04DX003 (ip), vehicle: carboxymethylcellulose (CMC) 102 % of control | dose: 200.0 mg/kg/injection, schedule: Q04DX003 (ip), vehicle: carboxymethylcellulose (CMC) 104 % of control | dose: 400.0 mg/kg/injection, schedule: Q04DX003 (ip), vehicle: carboxymethylcellulose (CMC) 109 % of control

CC(=O)Nc1ccc(NC(=O)Nc2ccc(F)c(Cl)c2)cc1
inactive: [9] 92 % of control | [11] 97 % of control | [13] 95 % of control

COC(=O)/C(=C1/OC(=O)C(c2ccccc2)=C1O)c1ccccc1
inactive: dose: 25.0 mg/kg/injection, schedule: Q01DX009 (ip), vehicle: saline with Tween-80 93 % of control | dose: 50.0 mg/kg/injection, schedule: Q01DX009 (ip), vehicle: saline with Tween-80 95 % of control | [14] 93 % of control | [17] 100 % of control

CCCCOB(OCCCC)Oc1c(C(C)(C)C)cccc1C(C)(C)C
inactive: [3] 106 % of control | [4] 89 % of control | [6] 93 % of control | [7] 92 % of control | dose: 400.0 mg/kg/injection, schedule: Q01DX009 (ip), vehicle: saline 108 % of control | dose: 400.0 mg/kg/injection, schedule: Q04DX003 (ip), vehicle: saline 91 % of control

Cc1cc(C)c(S(=O)(=O)ON=C2c3ccccc3-c3ccccc32)c(C)c1
inactive: [8] 107 % of control | [9] 105 % of control | [10] 104 % of control | [11] 110 % of control | [12] 101 % of control | [13] 97 % of control

CCCCCCCCCCCCCCCCCCN1CCSCC1
inactive: [14] 96 % of control and 108 % of control | dose: 100.0 mg/kg/injection, schedule: Q04DX002 (ip), vehicle: saline with Tween-80 93 % of control and 103 % of control | [17] 104 % of control | [15] 100 % of control and 103 % of control | dose: 200.0 mg/kg/injection, schedule: Q04DX002 (ip), vehicle: saline with Tween-80 94 % of control and 91 % of control | [18] 104 % of control | [16] 103 % of control and 110 % of control | dose: 400.0 mg/kg/injection, schedule: Q04DX002 (ip), vehicle: saline with Tween-80 98 % of control | [19] 106 % of control

COc1cc(CCN)cc(OC)c1OC
inactive: dose: 75.0 mg/kg/injection, schedule: Q01DX001 (ip), vehicle: saline 104 % of control | dose: 150.0 mg/kg/injection, schedule: Q01DX001 (ip), vehicle: saline 103 % of control | dose: 300.0 mg/kg/injection, schedule: Q01DX001 (ip), vehicle: saline 104 % of control

CCCCCCCC(=O)C(C)C
inactive: [8] 95 % of control | [9] 99 % of control | [10] 98 % of control | [11] 100 % of control | [12] 102 % of control | [13] 91 % of control

Ic1ccc(/C=N/Nc2nnc(N/N=C/c3ccc(I)cc3)c3ccccc23)cc1
inactive: dose: 50.0 mg/kg/injection, schedule: Q01DX001 (ip), vehicle: saline 98 % of control | [2] 96 % of control | [5] 98 % of control | [20] 98 % of control
